Data on four sequences can be found in patent publication US10576102B2, “KOC1-derived peptide and vaccine including same” (ONCOTHERAPY SCIENCE, INC., priority 2014, dated 2020).

“Also recorded” adds a separate entry of the source.

Assay [1] deals with peptide-pulsed C1R-A11. Briefly: In vitro CTL induction, IFN-gamma ELISPOT assay (HLA-A*1101). Type of assay: cell-based, human. Particulars: CTLs induced with peptide-pulsed DCs from HLA-A*1101-positive volunteers; day 21; vs peptide-pulsed C1R-A11, compared with unpulsed control; listed as KOC1-A11-9-258. The procedure:
C1R (C1R-A11) that stably expresses HLA-A*1101 was used as a stimulator cell. A cDNA encoding the open-reading frame of HLA-A*1101 was amplified by PCR and cloned into an expression vector. C1R cells were transfected with the expression vector, and then selected using G418 (Invitrogen) for two weeks. The G418-selected cells were seeded into wells containing G418-added culture medium in a 96-well plate, and further cultured for 30 days. The exogenous HLA-A*1101 expression in C1R cells was verified by flow cytometric analysis.
(§1) Monocyte-derived dendritic cells (DCs) were used as the antigen-presenting cell to induce a cytotoxic T lymphocyte (CTL) response against peptides presented on human leukocyte antigens (HLAs). As described in the other sections, DCs were generated in vitro (Nakahara S et al., Cancer Res 2003, 63(14): 4112-8). Specifically, peripheral-blood mononuclear cells isolated from healthy volunteers (HLA-A*1101-positive) with the Ficoll-Paque plus solution (Pharmacia) were separated by attaching to plastic tissue culture dishes (Becton Dickinson) and concentrated as a monocyte fraction. The monocyte-concentrated population was cultured in the presence of 1000 IU/ml granulocyte macrophage colony-stimulating factor (R&D System) and 1000 IU/ml interleukin(IL)-4 (R&D System) in an AIM-V medium (Invitrogen) containing 2% heat-inactivated autologous serum (AS). After seven days of culturing, the cytokine-induced DCs were pulsed with 20 micro-g/ml each of the synthesized peptides in an AIM-V medium at 37 degrees C. for three hours in the presence of 3 micro-g/ml beta 2-microglobulin. The generated cells appeared to express on their cell surface DC-associated molecules such as CD80, CD83, CD86 and HLA class II (data not shown). Next, these peptide-pulsed DCs were inactivated, by X-ray irradiation (20 Gy), and mixed in a 1:20 ratio with autologous CD8^+ T cells obtained by positive selection using the CD8 Positive Isolation Kit (Dynal). These culture products were seeded in a 48-well plate (Corning). Each well was made to contain 1.5×10^4 peptide-pulsed DCs, 3×10^5 CD8^+ T cells and 10 ng/ml IL-7 (R&D System) in 0.5 ml of the AIM-V/2% AS medium. Three days later, these culture products were added with a final concentration of 20 IU/ml IL-2 (CHIRON). On day 7 and day 14, T cells were further stimulated with peptide-pulsed autologous DCs. The DCs were prepared every time by the same method as above. On day 21, after the third peptide stimulation, CTLs were examined against the peptide-pulsed C1R-A11 by a human interferon (IFN)-gamma enzyme-linked immunospot (ELISPOT) assay (Tanaka H et al., Br J Cancer 2001, 84(1): 94-9; Umano Y et al., Br J Cancer 2001, 84(8): 1052-7; Uchida N et al., Clin Cancer Res 2004, 10(24): 8577-86; Suda T et al., Cancer Sci 2006, 97(5): 411-9; Watanabe T et al., Cancer Sci 2005, 96(8): 498-506).
Specifically, peptide-pulsed C1R-A11 (1×10^4 cells/well) was prepared as the stimulator cell. The induced CTLs, i.e., CTL lines and CTL clones, were used as the responder cell. The IFN-gamma ELISPOT assay and IFN-gamma ELISA were performed according to the manufacturer's manual.

Assay [2] deals with peptide-pulsed C1R-A33. The assay is described as follows: In vitro CTL induction, IFN-gamma ELISPOT assay (HLA-A*3303). The assay is classed as cell-based, human. Particulars: CTLs induced with peptide-pulsed DCs from HLA-A*3303-positive volunteers; day 21; vs peptide-pulsed C1R-A33, compared with unpulsed control. The procedure:
C1R (C1R-A33) that stably expresses HLA-A*3303 was used as a stimulator cell. A cDNA encoding the open-reading frame of HLA-A*3303 was amplified by PCR and cloned into an expression vector. C1R cells were transfected with the expression vector, and then selected using G418 (Invitrogen) for two weeks. The G418-selected cells were seeded into wells containing G418-added culture medium in a 96-well plate, and further cultured for 30 days. The exogenous HLA-A*3303 expression in C1R cells was verified by flow cytometric analysis.
as §1, with “volunteers (HLA-A*3303-positive)” for “volunteers (HLA-A*1101-positive)”, “were inactivated” for “were inactivated,”, “peptide-pulsed C1R-A33 cell” for “peptide-pulsed C1R-A11”, “Y et.” for “Y et”
(§2) Specifically, peptide-pulsed C1R-A33 (1×10^4 cells/well) was prepared as the stimulator cell. The induced CTLs, i.e., CTL lines and CTL clones, were used as the responder cell. The IFN-gamma ELISPOT assay and IFN-gamma ELISA were performed according to the manufacturer's manual.

The test system of assay [3] is peptide-pulsed C1R-A33. The assay is described as follows: IFN-gamma ELISA of CTL lines and CTL clones (HLA-A*3303). The assay is classed as cell-based, human. The conditions noted are these: for IFN-gamma production of CTL clones, ELISA: CTL clones by limiting dilution, peptide-pulsed C1R-A33; for IFN-gamma production of CTL lines, ELISA: target cells pulsed with the peptide vs not pulsed, C1R-A33. The procedure:
CTLs were propagated in culture using methods similar to those disclosed by Riddell et al. (Walter E A et al., N Engl J Med 1995, 333(16): 1038-44; Riddell S R et al., Nat Med 1996, 2(2): 216-23). The CTLs were co-cultured in a total of 25 ml AIM-V medium containing 5% AS (AIM-V/5% AS) and 40 ng/ml anti-CD3 antibody with two types of Mitomycin C-treated human B lymphoblastoid cell lines at 5×10^6 cells/flask. One day after beginning of the culturing, 120 IU/ml IL-2 was added to the culture. On days 5, 8 and 11, a fresh AIM-V/5% AS medium containing 30 IU/ml IL-2 was added to the culture (Tanaka H et al., Br J Cancer 2001, 84(1): 94-9; Umano Y et al., Br J Cancer 2001, 84(8): 1052-7; Uchida N et al., Clin Cancer Res 2004, 10(24): 8577-86; Suda T et al., Cancer Sci 2006, 97(5): 411-9; Watanabe T et al., Cancer Sci 2005, 96(8): 498-506).
Dilution of CTLs was carried out to make 0.3, 1 and 3 cells/well in 96 round-bottomed microtiter plates (Nalge Nunc International). The CTLs were co-cultured with two types of Mitomycin C-treated human B lymphoblastoid cell lines at 1×10^4 cells/well in a total of 150 micro-1/well AIM-V/5% AS medium with 30 ng/ml anti-CD3 antibody and 125 IU/ml IL-2. Ten days later, IL-2 was added to the medium at 50 micro-1/well to reach a final concentration of 125 IU/ml. On day 14, the CTL activity was tested, and the CTL clones were propagated using the same method as described above (Uchida N et al., Clin Cancer Res 2004, 10(24): 8577-86; Suda T et al., Cancer Sci 2006, 97(5): 411-9; Watanabe T et al., Cancer Sci 2005, 96(8): 498-506).
as §2

Assay [4] has as its system COS7 cells transfected with both KOC1 and HLA-A*3303. Briefly: Specific CTL activity against target cells expressing KOC1 and HLA-A*3303. Type of assay: cell-based, African green monkey. Particulars: for specific CTL activity of CTL clones against target cells expressing KOC1 and HLA-A*3303: COS7 transfected with both full-length KOC1 and HLA-A*3303; for specific CTL activity of CTL clones against control cells: COS7 transfected with either full-length KOC1 or HLA-A*3303. The procedure:
as §2
A cDNA encoding the open-reading frame of a target gene or HLA-A*3303 was amplified by PCR. The PCR-amplified product was cloned into an expression vector. Either or both of the target gene-expressing vector and the HLA-A*3303-expressing vector were transfected into […], which is a cell line negative for the target gene and HLA, using Lipofectamine 2000 (Invitrogen) following the manufacturer's recommended protocol. Two days after transfection, the transfected cells were harvested using versene (Invitrogen), and used as the target cell for CTL activity assay (5×10^4 cells/well).
The CTL lines and CTL clones established against KOC1-A33-9-485 (SEQ ID NO: 64) (a), KOC1-A33-9-286 (SEQ ID NO: 67) (b), and KOC1-A33-10-542 (SEQ ID NO: 77) (c) were investigated for their ability to recognize target cells expressing KOC1 and the HLA-A*3303 molecule. COS7 cells transfected with both full-length KOC1 and the HLA-A*3303 gene (a specific model of target cells expressing KOC1 and the HLA-A*3303 gene) were prepared as the target cell. COS7 cells transfected with either full-length KOC1 or HLA-A*3303 were prepared as the control.

“KSILEIMHK (a peptide derived from KOC1) [SEQ ID NO: 1]”: the “peptide-specific CTL activity (IFN-gamma production), ELISPOT” value (shortened to “peptide-specific CTL activity”) in assay [1] is on record as “no specific IFN-gamma production; also recorded: specific IFN-gamma production was not observed”.

With “NFVGRLIGK (a peptide derived from KOC1) [SEQ ID NO: 67]”, in assay [2], the “peptide-specific CTL activity” value is “potent IFN-gamma production”. For the same sequence, the “IFN-gamma production of CTL clones, ELISA” value in assay [3] (listed as KOC1-A33-9-286) is recorded as “Potent IFN-gamma production”. Further, the “IFN-gamma production of CTL lines, ELISA” value in assay [3] is “potent IFN-gamma production”. Moreover, in assay [4] (listed as KOC1-A33-9-286), the “specific CTL activity of CTL clones against target cells expressing KOC1 and HLA-A*3303” value was “specific CTL activity; also recorded: potent CTL activities”; the “specific CTL activity of CTL clones against control cells” value is recorded as “a significant specific CTL activity was not shown; also recorded: a significant specific CTL activity was not detected”.

For the sequence “HFYACQVAQR (a peptide derived from KOC1) [SEQ ID NO: 77]”, in assay [2], the “peptide-specific CTL activity” value is reported as “potent IFN-gamma production”. In addition, in assay [3] (listed as KOC1-A33-10-542), the “IFN-gamma production of CTL clones, ELISA” value was “Potent IFN-gamma production”. Further, in assay [3], the “IFN-gamma production of CTL lines, ELISA” value was “potent IFN-gamma production”. In assay [4] (listed as KOC1-A33-10-542), the “specific CTL activity of CTL clones against target cells expressing KOC1 and HLA-A*3303” value is listed as “specific CTL activity; also recorded: potent CTL activities”; the “specific CTL activity of CTL clones against control cells” value was “a significant specific CTL activity was not shown; also recorded: a significant specific CTL activity was not detected”.

In the case of “EVKLEAHIR (a peptide derived from KOC1) [SEQ ID NO: 64]”, the “peptide-specific CTL activity” value in assay [2] is “potent IFN-gamma production”. Moreover, in assay [3] (listed as KOC1-A33-9-485), the “IFN-gamma production of CTL clones, ELISA” value is “Potent IFN-gamma production”. In assay [3], the “IFN-gamma production of CTL lines, ELISA” value is listed as “potent IFN-gamma production”. In assay [4] (listed as KOC1-A33-9-485), the “specific CTL activity of CTL clones against target cells expressing KOC1 and HLA-A*3303” value is recorded as “specific CTL activity; also recorded: potent CTL activities”; the “specific CTL activity of CTL clones against control cells” value is listed as “a significant specific CTL activity was not shown; also recorded: a significant specific CTL activity was not detected”.
